Where “and” joins values, the source holds several entries; their conditions need not be identical. Identical values can stand only once.
Tests used:
Format in all cases: in vivo
Mesocriconema xenoplax = experiment: Vine field trial, number of nematodes in soil after foliar (I-2) or drench (imidacloprid) application; conditions: vines, (I-2) 12.5 fl oz per 605 plants foliar, imidacloprid 14 fl oz drench; for Activity against Mesocriconema xenoplax, number of nematodes, 30 d: 30 days after first treatment; for Activity against Mesocriconema xenoplax, number of nematodes, 60 d: 60 days after first treatment; for Activity against Mesocriconema xenoplax, number of nematodes, 0 d: prior to treatment
Protocol: (§1) In 5 replications, in each case 15 vines of the cultivar “Thompson Seedless 1948” are treated against soil-dwelling nematodes using a fogger. Here, a tank mix of the active compound (I-2) (SC 240) is applied after foliar application at the stated application rates with 0.25% of the adjuvant Activator 90, in comparison to imidacloprid (SC 550) after drench application by micro-irrigation injection. The water application rate is 75 gallons per acre=605 plants. Two applications of active compound (I-2) are carried out at an interval of 32 days.
(§2) Evaluation is carried out prior to the treatment and 30 days and 60 days after the first treatment by counting the number of nematodes in 500 g of soil.

Meloidogyne incognita = experiment: as above; conditions: for Activity against Meloidogyne incognita, number of nematodes, 0 d: vines Thompson Seedless, prior to treatment, (I-2) SC 240 12.5 fl oz per 605 plants foliar, imidacloprid SC 550 14 fl oz drench; for Activity against Meloidogyne incognita, number of nematodes, 30 d / Activity against Meloidogyne incognita, number of nematodes, 60 d: vines, (I-2) 12.5 fl oz per 605 plants foliar (2 applications, 32 d interval), imidacloprid 14 fl oz drench; for Activity against Meloidogyne incognita, number of nematodes, 30 d: 30 days after first treatment; for Activity against Meloidogyne incognita, number of nematodes, 60 d: 60 days after first treatment
Protocol: as §1, §2

Pratylenchus sp. = experiment: as above; conditions: vines, (I-2) 12.5 fl oz per 605 plants foliar, imidacloprid 14 fl oz drench; for Activity against Pratylenchus sp., number of nematodes, 30 d: 30 days after first treatment; for Activity against Pratylenchus sp., number of nematodes, 60 d: 60 days after first treatment; for Activity against Pratylenchus sp., number of nematodes, 0 d: prior to treatment
Protocol: as §1, §2

[1] = test system: Tylenchulus semipenetrans; experiment: Foliar application of (I-2) to citrus in pots for control of Tylenchulus semipenetrans; conditions: individual trees
Protocol: Foliar Application of (I-2) to Citrus in Pots for Control of Tylenchulus semipenetrans
Treatments: 15 trees sprayed with (I-2=Movento), 15 trees sprayed with water (presample each pot); 25 mL/tree
Add Tylenchulus semipenetrans larvae to all pots. The following day take trees out of greenhouse. Cover top of pot to exclude spray from soil. (I-2) (SC 240) is sprayed in a concentration of 2.6 ml plus 2.5 ml adjuvant MSO (methylated seed oil), (100% active w/v, added to the spray solution at 0.25% v/v) per liter sprac solution. Spray canopy from two sides of trees to runoff with a 2 gallon “Sure Spray” pump sprayer (Chapin Mfg.) using a nozzle that delivers a cone shape spray pattern. Allow material to dry before returning plants to greenhouse. Repeat in 14 days.
For this citrus nematode trial, 5-year old Volkamer lemon seedlings are infested with T. semipenetrans obtained from the field and maintained in the greenhouse (25-32° C.) for use in pesticide trials. Trees used in the experiment are not treated with nematicidal compounds. The seedlings are growing in a 50:50 mixture of Astatula sand (97% sand) and Pro-mix potting mixture in rectangular pots (10×10×30 cm). Trees are irrigated normally, but receive no fertilizer or pesticide treatments other than (I-2) during the experiment. Effects on citrus nematode are evaluated by soil sampling 30 days and 60 days after treatment.
Tylenchulus semipenetrans raw data (juvenile and male nematodes per […] soil. Pi is initial population before treatment, Pf is final population at one and two months post treatment).

Meloidogyne arenaria = experiment: Tomato pot trial, root-knot nematode galling index and eggs per root system; conditions: for Galling index: 78 d after first treatment, mean; for Appearance of root system (galls, egg masses, rot): visual, at harvest
Protocol: The experiment is carried out in a shade house at a temperature of around 78 F (76-80 F). The experiment is conduced in a complete randomize design with seven treatments and six replications. 6 inch pots are filled with 1,500 g of steam pasteurized (194 F for 2:30 h) field soil per pot and a 4 weeks old tomato cv. Rutgers transplant is added. The soil is an Arredondo fine sand with ca. 92% sand and 1% om. The soil is taken from a site with no history of root-knot nematode infestation.
The first preventive treatments of Vydate CLV and (I-2) (SC 240; adjuvant: Dyne-Amic (a blend of nonionic and organosilicone surfactants and MSO), 99% active w/v, added 0.25% v/v) are applied as foliar spray. Fosthiazate 900 is applied as a soil drench in 40 gallons water per acre. The second preventive application of Vydate and (I-2) are sprayed over foliage 7 days after l^st treatment. The soil is inoculated by adding 5,000 eggs/pot of Meloidogyne arenaria one day after the 2nd treatment. The curative treatments of Vydate and (I-2) are applied as a foliar spray on 21 and 28 days after inoculation with Meloidogyne arenaria.
All (I-2) and Vydate treatments are applied in 40 gallons of water/acre by a CO2 pressurized sprayer with a single 8003 VS TeeJet noozle. The tomato plants for each treatment are lined up in a row with the spray directed over their foliage until noticeable drip.
78 days after the 1st treatment the plants are harvested. Each root system is evaluated for the percentage of root-knot nematode galling and eggs per root system. A 1 to 6 scale is used for estimating the number galls per root system as follows: 1=no galls on the root system; 2=10%; 3=11 to 30%; 4=31 to 70%; 5=71 to 90%; 6=100% root system galled. Following the determination of percentage of galling the roots are processed in a bleach solution to dissolve away the gelatinous matrix surrounding the eggs. Individual eggs are collection on a 500 mesh sieve and poured into a counting dish for determining their numbers.

[2] = preventive treatment, tomato cv. Rutgers, scale 1 to 6 (1 = no galls, 6 = 100% of root system galled)
[3] = preventive treatment, tomato, 5,000 eggs/pot inoculated

Structure (SMILES) | Activity against Mesocriconema xenoplax, number of nematodes, 30 d (Mesocriconema xenoplax) | Activity against Mesocriconema xenoplax, number of nematodes, 60 d (Mesocriconema xenoplax) | Activity against Mesocriconema xenoplax, number of nematodes, 0 d (Mesocriconema xenoplax) | Activity against Meloidogyne incognita, number of nematodes, 0 d (Meloidogyne incognita) | Activity against Meloidogyne incognita, number of nematodes, 30 d (Meloidogyne incognita) | Activity against Meloidogyne incognita, number of nematodes, 60 d (Meloidogyne incognita) | Activity against Pratylenchus sp., number of nematodes, 30 d (Pratylenchus sp.) | Activity against Pratylenchus sp., number of nematodes, 60 d (Pratylenchus sp.) | Activity against Pratylenchus sp., number of nematodes, 0 d (Pratylenchus sp.) | Treat Pi (initial population before treatment) ([1]; Volkamer lemon seedlings in pots, before treatment) | Treat Pf (final population one month post treatment) ([1]; (I-2) SC 240 2.6 ml/l plus MSO foliar, repeated after 14 days, one month post treatment) | Treat Pf2 (final population two months post treatment) ([1]; (I-2) SC 240 2.6 ml/l plus MSO foliar, repeated after 14 days, two months post treatment) | Number of eggs/root system 78 d after first treatment (Meloidogyne arenaria; curative treatment (21 and 28 days after inoculation), tomato) | Galling index (Meloidogyne arenaria; curative treatment (21 and 28 days after inoculation), tomato, scale 1 to 6) | Appearance of root system (galls, egg masses, rot) (Meloidogyne arenaria; curative treatment) | Galling index (Meloidogyne arenaria; [2]) | Number of eggs/root system 78 d after first treatment (Meloidogyne arenaria; [3]) | Appearance of root system (galls, egg masses, rot) (Meloidogyne arenaria; preventive treatment)
CCOC(=O)OC1=C(c2cc(C)ccc2C)C(=O)N[C@]12CC[C@@H](OC)CC2 [(I-2)] | 861.2 nematodes in 500 g of soil | 942.8 nematodes in 500 g of soil | 1817 nematodes in 500 g of soil | 312 nematodes in 500 g of soil | 140.8 nematodes in 500 g of soil | 178.8 nematodes in 500 g of soil | 371.2 nematodes in 500 g of soil | 454 nematodes in 500 g of soil | 826 nematodes in 500 g of soil | 2412.5 juvenile and male nematodes per 100 cm^2 soil and 2100.0 juvenile and male nematodes per 100 cm^2 soil and 1700.0 juvenile and male nematodes per 100 cm^2 soil and 9237.5 juvenile and male nematodes per 100 cm^2 soil and 4180.0 juvenile and male nematodes per 100 cm^2 soil and 400.0 juvenile and male nematodes per 100 cm^2 soil and 4250.0 juvenile and male nematodes per 100 cm^2 soil (2×) and 1625.0 juvenile and male nematodes per 100 cm^2 soil and 125.0 juvenile and male nematodes per 100 cm^2 soil (2×) and 2190.0 juvenile and male nematodes per 100 cm^2 soil and 210.0 juvenile and male nematodes per 100 cm^2 soil and 2490.0 juvenile and male nematodes per 100 cm^2 soil and 250.0 juvenile and male nematodes per 100 cm^2 soil | 168.83 juvenile and male nematodes per 100 cm^2 soil and 519.74 juvenile and 534.25 juvenile and 1440.00 juvenile and 2753.33 juvenile and 336.84 juvenile and 708.33 juvenile and 638.16 juvenile and 87.21 juvenile and 1803.37 juvenile and 1402.78 juvenile and 60.81 juvenile and 1448.86 juvenile and 86.21 juvenile and 54.35 juvenile | 181.82 juvenile and male nematodes per 100 cm^2 soil and 380.95 juvenile and 338.71 juvenile and 1207.55 juvenile and 7807.69 juvenile and 347.46 juvenile and 1908.33 juvenile and 4122.22 juvenile and 175.44 juvenile and 1409.84 juvenile and 3205.36 juvenile and 92.59 juvenile and 1481.13 juvenile and 551.02 juvenile and 531.25 juvenile | 141,000 eggs/root system | 4.5 | little darkening or rotting appearance | 6.0 | 421,600 eggs/root system | numerous egg masses and coalesced galls
CCOP(=O)(SC(C)CC)N1CCSC1=O (stereo not drawn) [Fosthiazate, reference compound] |  |  |  |  |  |  |  |  |  |  |  |  |  |  |  | 5.3 | 453,500 eggs/root system | darkened decaying roots with numerous galls and egg masses
O=[N+]([O-])NC1=NCCN1Cc1ccc(Cl)nc1 [Imidacloprid, reference compound] | 808.4 nematodes in 500 g of soil | 958.46 nematodes in 500 g of soil | 1863 nematodes in 500 g of soil | 267 nematodes in 500 g of soil | 171 nematodes in 500 g of soil | 188 nematodes in 500 g of soil | 320 nematodes in 500 g of soil | 319.6 nematodes in 500 g of soil | 406 nematodes in 500 g of soil |  |  |  |  |  |  |  |  | 

Reference: patent US20100311801A1, “USE OF TETRAMIC ACID DERIVATIVES FOR CONTROLLING NEMATODES” (priority 2007, published 2010)
